From US4170645A, “Antibacterial agent BM123γ, salts and alkyl derivatives thereof for the control of shipping fever in cattle” (American Cyanamid Company, priority 1978, dated 1979)

Key:
P. hemolytica [1] = test: MIC by tube dilution method against P. hemolytica (Example 3); assay type: cell-based; conditions: 24 hours, 37° C.
Method: (§1) In vitro determination of the potency of Isopropyl BM123γ compared with oxytetracycline and gentamicin in selected bacterial isolates by a tube dilution method.
(§2) Serial two-fold dilutions of antibacterial agent are prepared in trypticase soy broth. To each tube containing 5 ml of broth, is added 0.1 ml of 10^-3 dilution of bacterial inoculum, adjusted prior to dilution of 44 percent transmission at 645 m,u. An inoculated broth, containing no drug is included as growth for each strain tested.

P. multocida [2] = test: In vitro minimal inhibitory concentration against P. multocida isolates (Example 1); assay type: cell-based
Method: (§3) Minimal inhibitory concentrations (MIC) of eight Pasteurella isolates are also determined.

P. multocida [3] = test: MIC by tube dilution method against P. multocida (Example 3); assay type: cell-based; conditions: 24 hours, 37° C.
Method: as §1, §2

P. hemolytica [4] = test: In vitro minimal inhibitory concentration against P. hemolytica isolates (Example 1); assay type: cell-based
Method: as §3

shipping fever [5] = test: Control of shipping fever in young cattle: mortality and days to return to normal temperature (Example 2); assay type: in vivo, calves; conditions: 11.0 mg/kg i.m., 3 daily injections
Source text: In vivo activity of Isopropyl BM123γ for the control of shipping fever in young cattle as compared to oxytetracycline.
Calves weighing 90.6 to 181.2 Kg received at the feedlot are processed as is normally done, except no antibacterial treatment is given. Processing includes vaccination with Infectious Bovine Rhinotracheitis (Bovine virus Diarrhea) Leptospirosis vaccine, administration of a Clostridium novyi, septicum, sordelli, chauvei bacterin, levamisole (1/2 oblet), i.m. administration of 3 ml of a vitamin A, D and E formulation, a pour-on formulation of 0,0-dimethyl-0-(2,4,5-trichlorophenyl) ester of phosphorothioic acid for the control of grubs and lice, and one DES (diethylstilbestrol) implant in an ear. In addition--and at the same time--the calves are branded, ear tagged, dehorned and castrated where applicable.
One to two days after arrival and processing, sick calves are removed from the holding pens and those with temperatures of 40.0° C. or higher and showing symptoms of respiratory disease are selected for the study.
A total of 300 calves are randomly allotted to four groups of 75 calves each. One group serves as infected unmedicated controls receiving a "blank" solution, the others receive intramuscularly between hip and pin bones, for a total of 3 daily injections of:
a. 11 mg/kg body weight of oxytetracycline, the maximum recommended dose;
b. 0.5 mg/kg body weight of Isopropyl BM123γ; or
c. 1.0 mg/kg body weight of Isopropyl BM123γ.
The preparation and composition of injectables for "b" and "c" are described in Example 5 below.
Temperatures are recorded daily until two successive readings of 39.7° C. or lower are recorded, at which time calves are moved from the "sick" pen to the "recovered" pen. Although some of the "recovered" calves continue to show symptoms of disease, the criterion of body temperature is selected since it is completely objective.
One hundred fifty-four calves are treated the first day, fifty the second and 96 the third day. Following treatment, each animal is observed and its temperature recorded for a total of 14 consecutive days. Each animal which dies is necropsied and duplicate samples of lung and mediastinal lymph node are taken for microbiological examination. Necropsy examinations confirm the presence of severe pneumonia in most animals which died.
These calves died early in the study from conditions which the treatments should not have been expected to control.

shipping fever [6] = test: Gross necropsy findings of sacrificed treated calves; assay type: in vivo; conditions: Calf No. 4 (d), 4 days administered
Pasteurella = test: Bacterial isolation from tissues of sacrificed treated calves; assay type: in vivo; conditions: Calf No. 4, 4 days administered
Source text: At the end of the experiment, six calves are sacrificed, and animal tissues examined for aerobic and anaerobic bacteria. Pasteurella are isolated and identified from three of the sacrificed calves. No anaerobes are recovered from any tissues.

shipping fever [7] = test: Efficacy in depressing the body temperature of calves having shipping fever (Example 1); assay type: in vivo; conditions: 13 mg/kg i.m., three or four consecutive days
Source text: In vivo activity of BM123γ-hydrochloride and of isopropyl BM123γ for the control of shipping fever in calves.
Two hundred sick calves, with elevated temperatures and clinical signs of shipping fever are chosen for the experiment. The animals are allotted to four groups of 50 calves each. One group serves as nonmedicated, infected controls receiving placebos, the other groups receive intramuscular injections of the respective drugs for three or four consecutive days at the levels indicated in Table 1. […]

Gentamicin
MIC (P. hemolytica [1]; isolate No. 1): 8.0 µg/mL | MIC (P. hemolytica [1]; isolate No. 2): 8.0 µg/mL | MIC (P. hemolytica [1]; isolate No. 3): 4.0 µg/mL | MIC (P. hemolytica [1]; isolate No. 4): 8.0 µg/mL | MIC (P. hemolytica [1]; isolate No. 5): 4.0 µg/mL | MIC (P. multocida [2]; isolate No. 6): 2 µg/mL | MIC (P. multocida [2]; isolate No. 7): 2 µg/mL | MIC (P. multocida [2]; isolate No. 8): 2 µg/mL | MIC (P. multocida [3]; isolate No. 1): 4.0 µg/mL | MIC (P. multocida [3]; isolate No. 2): 4.0 µg/mL | MIC (P. multocida [3]; isolate No. 3): 8.0 µg/mL | MIC (P. multocida [3]; isolate No. 4): 4.0 µg/mL | MIC (P. multocida [3]; isolate No. 5): 4.0 µg/mL | MIC (P. multocida [3]; isolate No. 6): 4.0 µg/mL | MIC (P. multocida [3]; isolate No. 7): 4.0 µg/mL | MIC (P. hemolytica [4]; isolate No. 1): 4 µg/mL | MIC (P. hemolytica [4]; isolate No. 2): 8 µg/mL | MIC (P. hemolytica [4]; isolate No. 3): 2 µg/mL | MIC (P. hemolytica [4]; isolate No. 4): 4 µg/mL | MIC (P. hemolytica [4]; isolate No. 5): 4 µg/mL

CN(C)C1C(=O)C(C(N)=O)=C(O)C2(O)C(=O)C3=C(O)c4c(O)cccc4C(C)(O)C3C(O)C12 (stereo not drawn) [Oxytetracycline]
Mortality, Percent (shipping fever [5]): 5.6% | average number of days to return to normal temperature (shipping fever [5]): 5.33 days | Mortality, No. of Animals (shipping fever [5]; group of 75): 4 No. of Animals | Days to Normal, No. of Animals (shipping fever [5]; normal = two successive readings of 39.7° C. or lower): 72 No. of Animals | Lung findings at necropsy (shipping fever [6]): The lungs were consolidated and had miliary abscesses in 60% of their volume | Bacteria isolated (Pasteurella): P. Hemolytica + P. multocida | Total cfu/g (Pasteurella; P. Hemolytica + P. multocida): 9.1 × 10^6 cfu/g | Calves below 39.4° C./total, 2 days after last Injection (shipping fever [7]): 22/38 | Percent of calves below 39.4° C., 2 days after last Injection (shipping fever [7]): 58% | Mean Temperature 2 days after last Injection (shipping fever [7]; mean initial 40.7): 39.4 °C
